Source: patent US6579896B2, “Method for treating allergies using substituted pyrazoles” (Ortho-McNeil Pharmaceutical, Inc., priority 2000, dated 2003)

How the values were obtained:
[1] = test system: PBMC from HDM-allergic donors (allergen-specific CD4 T cells); test: Ex vivo human T cell-proliferation assay, house dust mite extracts (Der p, Der f); format: cell-based; conditions: PBMC of four HDM-allergic donors, Der p or Der f extract, 7 days culture, FIG. 1B
[2] = test system: PBMC from ragweed-allergic donors (allergen-specific CD4 T cells); test: Ex vivo human T cell-proliferation assay, ragweed extracts (short and giant); format: cell-based; conditions: PBMC of two ragweed-allergic donors, short and giant ragweed extract, 7 days culture, FIG. 2B
[3] = test system: PBMC from allergic donors (T cells, ConA pan-T cell mitogen); test: T cell proliferative responses induced by ConA; format: cell-based, human; conditions: specificity control
[4] = test system: invariant chain (Ii) degradation by cathepsin S in PBMC; test: Monitoring cathepsin S inhibition in human blood: p10Ii fragment accumulation (Western blot); format: cell-based; conditions: PBMC from human blood, incubation for 24 h, SDS-PAGE / Western blot

Compound: CC(C)C[C@H](NC(=O)N1CCOCC1)C(=O)N[C@H](/C=C/S(=O)(=O)c1ccccc1)CCc1ccccc1 [LHVS, 4-morpholinecarboxamide, N-[(1S)-3-methyl-1-[[[(1S,2E)-1-(2-phenylethyl)-3-(phenylsulfonyl)-2-propenyl]amino]carbonyl]butyl]-]
- T cell proliferation (3H-thymidine incorporation) induced by HDM extracts [1]: strongly inhibited
- T cell proliferation (3H-thymidine incorporation) induced by ragweed extracts [2]: strongly inhibited
- T cell proliferative responses induced by ConA ([3]; HDM-allergic donors): not affected
- T cell proliferative responses induced by ConA ([3]; ragweed-allergic donors): not affected
- p10Ii fragment of invariant chain (block in degradation of Ii) [4]: the p10Ii fragment was seen
